In BindingDB's records for doi:10.1016/s0960-894x(02)00084-7 (The University of Tokyo, 2002) one finds relative activity vs aspirin data, which are given here for 18 compounds.

Test [1] can be described thus: Inhibitory activity (RA1) against Prostaglandin G/H synthase 1 was calculated relative to aspirin.
Test [2] is described as follows: Inhibitory activity (RA2) against Prostaglandin G/H synthase 2 was calculated relative to aspirin.

Turning to `Cc1cc(C)cc(N2C(=O)c3ccccc3C2=O)c1` [2-(3,5-Dimethyl-phenyl)-isoindole-1,3-dione], the relative activity vs aspirin in test [1] was 7.4; in test [2] it was 13.2.

On to `O=C1CCC(N2C(=O)c3ccccc3C2=O)C(=O)N1` (racemic) [(+/-)-thalidomide], for which the relative activity vs aspirin in test [1] was 0.37; in test [2], 0.5. For `Cc1cc(C)cc(-n2c(O)cc3ccccc3c2=O)c1` [2-(3,5-Dimethyl-phenyl)-4H-isoquinoline-1,3-dione], in that order: 95.2 and 38.5.

On to `COc1cc(C)nc(-n2c(O)cc3ccccc3c2=O)n1` [2-(4-Methoxy-6-methyl-pyrimidin-2-yl)-4H-isoquinoline-1,3-dione], for which the relative activity vs aspirin in test [1] was 21.7; in test [2] it was 10.

For the compound `O=C1NCCCC1N1C(=O)c2ccccc2C1=O` (centres undefined) [2-(2-Oxo-piperidin-3-yl)-isoindole-1,3-dione], the figures for the relative activity vs aspirin in test [1] and in test [2] were 0.85 and 1.21, respectively. Consider `C[C@@]1(N2C(=O)c3ccc([N+](=O)[O-])cc3C2=O)CCC(=O)NC1=O` [2-((R)-3-Methyl-2,6-dioxo-piperidin-3-yl)-5-nitro-isoindole-1,3-dione], for which the relative activity vs aspirin in test [1] is 0.54; in test [2], 1.51. `Cc1cc(C)nc(-n2c(O)cc3ccccc3c2=O)n1` [2-(4,6-Dimethyl-pyrimidin-2-yl)-4H-isoquinoline-1,3-dione]: the relative activity vs aspirin in test [1] was 3.85; in test [2], 8.33.

Consider `Cc1cc(C)c(C)c(N2C(=O)c3ccccc3C2=O)c1` [2-(2,3,5-Trimethyl-phenyl)-isoindole-1,3-dione], for which the relative activity vs aspirin is 0.33 in test [1] and 1.18 in test [2]. Regarding `O=C1c2ccccc2C(=O)N1c1c[nH]c(=O)[nH]c1=O` [2-(2,4-Dioxo-1,2,3,4-tetrahydro-pyrimidin-5-yl)-isoindole-1,3-dione], the results for the relative activity vs aspirin in test [1] and in test [2] were 0.44 and 3.81, respectively. On to `C[C@@]1(N2C(=O)c3cccc([N+](=O)[O-])c3C2=O)CCC(=O)NC1=O` [2-((R)-3-Methyl-2,6-dioxo-piperidin-3-yl)-4-nitro-isoindole-1,3-dione], for which the relative activity vs aspirin in test [1] was 0.4; in test [2] it was 0.1. With `Cc1cc(C)nc(-n2c(O)cc3ccccc3c2=O)c1` [2-(4,6-Dimethyl-pyridin-2-yl)-4H-isoquinoline-1,3-dione], the relative activity vs aspirin was 12.5 in test [1] and 6.67 in test [2]. For the compound `COc1cc(OC)nc(-n2c(O)cc3ccccc3c2=O)n1` [2-(4,6-Dimethoxy-pyrimidin-2-yl)-4H-isoquinoline-1,3-dione], the relative activity vs aspirin in test [1] was 10.2; in test [2] it was 3.57.

On to `O=C1c2ccccc2C(=O)N1CCn1ccc(=O)[nH]c1=O` [2-[2-(2,4-Dioxo-3,4-dihydro-2H-pyrimidin-1-yl)-ethyl]-isoindole-1,3-dione], for which the relative activity vs aspirin in test [1] was 1.23; in test [2], 0.65. The corresponding values for `C[C@@]1(N2C(=O)c3ccccc3C2=O)CCC(=O)NC1=O` [2-((R)-3-Methyl-2,6-dioxo-piperidin-3-yl)-isoindole-1,3-dione] are 0.29 and 0.73.

As to `C[C@@]1(N2C(=O)c3cccc(N)c3C2=O)CCC(=O)NC1=O` [4-Amino-2-((R)-3-methyl-2,6-dioxo-piperidin-3-yl)-isoindole-1,3-dione], the relative activity vs aspirin in test [1] is 0.17.

For the compound `Cc1cc(C)c(C)c(N2C(=O)c3ccccc3C2=O)c1C` [2-(2,3,5,6-Tetramethyl-phenyl)-isoindole-1,3-dione], the figures for the relative activity vs aspirin in test [1] and in test [2] were 0.2 and 0.67, respectively. For the compound `C[C@@]1(N2C(=O)c3ccc(N)cc3C2=O)CCC(=O)NC1=O` [5-Amino-2-((R)-3-methyl-2,6-dioxo-piperidin-3-yl)-isoindole-1,3-dione], the relative activity vs aspirin in test [1] was 0.12. As for `O=C1CCN(N2C(=O)c3ccccc3C2=O)C(=O)N1` [2-(2,4-Dioxo-tetrahydro-pyrimidin-1-yl)-isoindole-1,3-dione], the relative activity vs aspirin in test [1] is 0.6; in test [2], 0.9.
